The structures appear in SMILES notation.

The experiment concerns PAF induced mortality. Nature of the experiment: Prevention of mortality induced by platelet aggregating factor (PAF). The conditions noted are these: Mus musculus, Platelet; oral, PAF 0.10 mg/kg i.v.; read-out: oral ID50 (Inhibiting Dose), PAF induced mortality. It counts as in vivo, mice (CF1). As to the method:
(k) Prevention of Mortality Induced by Platelet Aggregating Factor (PAF)
Male CF1 mice weighing 20-30 gms (Carworth Farms Co.) are fed ad libitum.
Racemic 2-[[[2-(acetyloxy)-3-(octadecyloxy)propoxy]hydroxyphosphinyl]oxy]-N,N,N-trimethylethanaminium hydroxide inner salt hemihydrate (PAF) is concentrated in ethanol at a concentration of 1 mg/ml.At the time of experimentation, PAF is diluted in 0.1% BSA (bovine serum albumin) and administered intravenously at a dose of 0.10 mg/kg one hour after 10 mice are dosed with either vehicle (BSA) or drug. Mortality in mice treated with PAF occurs within 30 minutes after i.v. administration.

`CC(C)c1ccc2nc3ccc(C(=O)NCCCCCCn4ccnc4)cn3c(=O)c2c1` [Example 31, 2-(1-methylethyl)-N-[6-(1H-imidazol-1-yl)hexyl]-11-oxo-11H-pyrido[2,1-b]quinazoline-8-carboxamide]: the ED50 stood at 17 mg/kg.

(Values after patent US4551460A, “Pyrido[2,1-b]quinazoline derivatives useful as agents for treatment of allergic conditions and vascular disorders involving thrombosis” (priority 1983, dated 1985).)
